Assay results as given in patent publication US20210380548A1, “Fused [1,2,4]Thiadiazine Derivatives Which Act as KAT Inhibitors of the MYST Family” (CTxT Pty Limited, priority 2017, published 2021).

What was measured:
[1] = tested on: histone H2A.Z Lysine 7 acetylation (TIP60 mediated) in U2OS cells; experiment: H2A.Z Lysine 7 Acetylation Biomarker Assay (96 well, U2OS); assay type: cell-based; conditions: Table 7, H2A.Z K7ac, 24 hours incubation, serum free medium
Experimental: To discover a global TIP60/KAT5 cellular biomarker useful for monitoring PD responses of TIP60 inhibition in vitro and in vivo, various histone modifications were assessed for TIP60 dependence through genetic (TIP60 siRNA and CRISPR/Cas9) or TIP60 pharmacological inhibition. This analysis clearly identified acetylation of the histone variant H2A.Z at Lysine 7 (H2A.ZK7ac) as a global histone mark which is TIP60-dependent in both human and mouse cells. To a lesser extent, TIP60 also acetylated lysine 4 and 11 of H2A.Z.
Compounds may be tested for their ability to inhibit the histone H2A.Z Lysine 7 acetylation biomarker (which is TIP60 mediated) in the following assay:
(§1) The cell line U2OS was seeded at a density of 9,000 cells per well in 96 well optical quality tissue culture plates in RPMI medium and 10% foetal bovine serum, and allowed to adhere for 24 hours under standard culture conditions (37 degree Celsius, 5% CO2). At the end of this period the cells were washed with serum free medium. Compound dilutions prepared in DMSO were added to the serum free medium, with negative control wells reserved for treatment with DMSO only and positive controls receiving a potent inhibitor compound (e.g. Example 146) at 20 μM concentration. After incubation for 24 hours, the cells were fixed with 3.7% formaldehyde in PBS for 20 minutes at room temperature, washed with phosphate buffer saline containing 0.1% Tween 20 and blocked with Odyssey blocking buffer (LI-COR, Lincoln, Nebr.) containing 0.1% TritonX100. Anti-H2A.Z K7ac specific antibody (Abcam) in Odyssey blocking buffer containing 0.1% Tween 20 was added and incubated for 14 hours at 4 degree Celsius. After washing, a secondary antibody labelled with Alexa647 dye (LifeTechnologies) and Hoechst 33342 (10 μM, SigmaAldrich) were added for 1 hour incubation. Plates were washed and read on a PerkinElmer Phenix high content imaging platform. Using a Columbus image analysis pipeline, individual nuclei were located by Hoechst 33342 stain and the acetylation level was calculated from the Alexa647-related intensity in the same area. The resulting mean intensity per cell was directly converted to percent inhibition relative to controls on the same plate and the data fitted against a four-parameter logistic model to determine the 50% inhibitory concentration (IC50).

[2] = target: T1, HBO-KAT7 (Homo sapiens, UniProt O95251); experiment: Acetyltransferase biochemical assay (AlphaScreen), KAT7; conditions: Table 3 (HBO-KAT7); 0.4 μM Acetyl coenzyme A, histone H3.1, 40 nM enzyme
T1 construct: encoding amino acid residues 325 to 611 (Uniprot 095251-1) of human KAT7; made in house; host or cells: E. coli BL21 DE3 RIL
T1 sequence (O95251 with tags, fused parts or gaps): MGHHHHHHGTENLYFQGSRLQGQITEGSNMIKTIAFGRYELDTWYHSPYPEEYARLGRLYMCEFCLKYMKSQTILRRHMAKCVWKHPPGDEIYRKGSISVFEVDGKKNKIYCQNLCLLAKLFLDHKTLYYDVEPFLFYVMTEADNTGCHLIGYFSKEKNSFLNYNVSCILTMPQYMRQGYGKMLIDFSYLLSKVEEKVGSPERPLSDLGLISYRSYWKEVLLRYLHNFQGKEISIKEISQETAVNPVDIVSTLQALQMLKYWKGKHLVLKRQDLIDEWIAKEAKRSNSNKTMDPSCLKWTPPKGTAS

[3] = tested on: histone H3K14 acetylation (HBO1 mediated) in U2OS cells; experiment: Histone H3 Lysine 14 Acetylation Biomarker Assay (96 well, U2OS); assay type: cell-based; conditions: Table 6, H3K14ac, 24 hours incubation, serum free medium
Experimental: Compounds may be tested for their ability to inhibit acetylation of the histone H3K14 marker (which is HBO1 mediated) in the following assay:
as §1, with “of 12,000” for “of 9,000”, “Example 36 in WO2016/198507)” for “Example 146)”, “at 10” for “at 20”, “TritonX100. Anti-H3K14ac” for “TritonX100. Anti-H2A.Z K7ac”, “antibody (Cell Signalling Technologies)” for “antibody (Abcam)”, “33342 (1 μg/mL,” for “33342 (10 μM,”

[4] = target: T2, MOF-KAT8 (Homo sapiens, UniProt Q9H7Z6); experiment: Acetyltransferase biochemical assay (AlphaScreen), KAT8; conditions: Table 4 (MOF-KAT8); 0.4 μM Acetyl coenzyme A, histone H4, 20 nM enzyme
T2 sequence (Q9H7Z6 177-447): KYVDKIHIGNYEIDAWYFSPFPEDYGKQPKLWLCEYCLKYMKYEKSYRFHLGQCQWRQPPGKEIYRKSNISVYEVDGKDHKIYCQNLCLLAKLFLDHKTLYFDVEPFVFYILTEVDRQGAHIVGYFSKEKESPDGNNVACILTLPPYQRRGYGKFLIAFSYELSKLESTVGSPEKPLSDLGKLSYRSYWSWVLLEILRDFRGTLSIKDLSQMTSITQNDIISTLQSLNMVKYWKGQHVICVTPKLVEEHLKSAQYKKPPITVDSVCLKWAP

[5] = target: T3, MOZ-KAT6A (Homo sapiens, UniProt Q92794, A567V); experiment: Acetyltransferase biochemical assay (AlphaScreen), KAT6A; conditions: Table 2 (MOZ-KAT6A); 10 μM Acetyl coenzyme A, histone H3.1, 5 nM enzyme
T3 construct: encoding amino acid residues 507 to 778 (Uniprot Q92794-1) of human KAT6A; made in house; host or cells: E. coli BL21 DE3
T3 sequence (Q92794 507-778 A567V limits assumed): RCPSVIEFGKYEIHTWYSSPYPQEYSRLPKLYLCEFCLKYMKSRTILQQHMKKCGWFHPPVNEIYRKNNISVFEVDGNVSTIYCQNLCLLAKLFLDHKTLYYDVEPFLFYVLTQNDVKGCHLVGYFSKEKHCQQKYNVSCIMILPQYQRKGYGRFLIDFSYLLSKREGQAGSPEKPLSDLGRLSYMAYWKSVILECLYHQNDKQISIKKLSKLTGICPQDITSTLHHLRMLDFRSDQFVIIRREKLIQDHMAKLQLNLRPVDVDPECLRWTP

[6] = target: T4, TIP60-KAT5 (Homo sapiens, UniProt Q92993); experiment: Acetyltransferase biochemical assay (AlphaScreen), KAT5; conditions: Table 1 (TIP60-KAT5); 0.4 μM Acetyl coenzyme A, histone H4, 10 nM enzyme
T4 construct: encoding amino acid residues 2 to 461 (Uniprot Q92993-2) of human KAT5 isoform; made in house; host or cells: E. coli BL21 DE3
T4 sequence (Q92993 2-461 isoform Q92993-2): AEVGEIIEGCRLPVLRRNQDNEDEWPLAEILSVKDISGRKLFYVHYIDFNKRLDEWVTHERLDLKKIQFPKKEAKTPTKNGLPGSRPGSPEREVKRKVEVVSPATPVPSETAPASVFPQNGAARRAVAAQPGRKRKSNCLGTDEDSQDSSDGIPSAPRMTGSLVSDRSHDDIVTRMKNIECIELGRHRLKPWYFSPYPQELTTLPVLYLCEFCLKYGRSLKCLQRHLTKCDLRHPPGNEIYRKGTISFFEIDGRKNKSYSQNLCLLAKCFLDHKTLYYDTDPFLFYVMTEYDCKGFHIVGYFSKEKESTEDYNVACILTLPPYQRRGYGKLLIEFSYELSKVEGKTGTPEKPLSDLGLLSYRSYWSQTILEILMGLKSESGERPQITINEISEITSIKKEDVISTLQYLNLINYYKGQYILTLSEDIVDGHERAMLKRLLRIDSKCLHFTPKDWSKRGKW

[7] = target: T4, TIP60-KAT5; experiment: Revised Acetyltransferase Biochemical Assay, KAT5; conditions: 10 nM KAT5, 1 μM AcCoA, 100 nM histone H4, 90 min
[8] = target: T1, HBO-KAT7; experiment: Revised Acetyltransferase Biochemical Assay, KAT7; conditions: Table 9 (HBO-KAT7), 1 μM Acetyl coenzyme A
[9] = target: T2, MOF-KAT8; experiment: Revised Acetyltransferase Biochemical Assay, KAT8
[10] = target: T3, MOZ-KAT6A; experiment: Revised Acetyltransferase Biochemical Assay, KAT6A; conditions: Table 8 (MOZ-KAT6A), 1 μM Acetyl coenzyme A
[11] = target: T5, QKF-KAT6B (Homo sapiens, UniProt Q8WYB5); experiment: Revised Acetyltransferase Biochemical Assay, KAT6B; conditions: 8 nM KAT6B, 1 μM AcCoA, 100 nM histone H3.1, 90 min
T5 construct: purchased SignalChem K315-381BG
T5 sequence (Q8WYB5 whole entry): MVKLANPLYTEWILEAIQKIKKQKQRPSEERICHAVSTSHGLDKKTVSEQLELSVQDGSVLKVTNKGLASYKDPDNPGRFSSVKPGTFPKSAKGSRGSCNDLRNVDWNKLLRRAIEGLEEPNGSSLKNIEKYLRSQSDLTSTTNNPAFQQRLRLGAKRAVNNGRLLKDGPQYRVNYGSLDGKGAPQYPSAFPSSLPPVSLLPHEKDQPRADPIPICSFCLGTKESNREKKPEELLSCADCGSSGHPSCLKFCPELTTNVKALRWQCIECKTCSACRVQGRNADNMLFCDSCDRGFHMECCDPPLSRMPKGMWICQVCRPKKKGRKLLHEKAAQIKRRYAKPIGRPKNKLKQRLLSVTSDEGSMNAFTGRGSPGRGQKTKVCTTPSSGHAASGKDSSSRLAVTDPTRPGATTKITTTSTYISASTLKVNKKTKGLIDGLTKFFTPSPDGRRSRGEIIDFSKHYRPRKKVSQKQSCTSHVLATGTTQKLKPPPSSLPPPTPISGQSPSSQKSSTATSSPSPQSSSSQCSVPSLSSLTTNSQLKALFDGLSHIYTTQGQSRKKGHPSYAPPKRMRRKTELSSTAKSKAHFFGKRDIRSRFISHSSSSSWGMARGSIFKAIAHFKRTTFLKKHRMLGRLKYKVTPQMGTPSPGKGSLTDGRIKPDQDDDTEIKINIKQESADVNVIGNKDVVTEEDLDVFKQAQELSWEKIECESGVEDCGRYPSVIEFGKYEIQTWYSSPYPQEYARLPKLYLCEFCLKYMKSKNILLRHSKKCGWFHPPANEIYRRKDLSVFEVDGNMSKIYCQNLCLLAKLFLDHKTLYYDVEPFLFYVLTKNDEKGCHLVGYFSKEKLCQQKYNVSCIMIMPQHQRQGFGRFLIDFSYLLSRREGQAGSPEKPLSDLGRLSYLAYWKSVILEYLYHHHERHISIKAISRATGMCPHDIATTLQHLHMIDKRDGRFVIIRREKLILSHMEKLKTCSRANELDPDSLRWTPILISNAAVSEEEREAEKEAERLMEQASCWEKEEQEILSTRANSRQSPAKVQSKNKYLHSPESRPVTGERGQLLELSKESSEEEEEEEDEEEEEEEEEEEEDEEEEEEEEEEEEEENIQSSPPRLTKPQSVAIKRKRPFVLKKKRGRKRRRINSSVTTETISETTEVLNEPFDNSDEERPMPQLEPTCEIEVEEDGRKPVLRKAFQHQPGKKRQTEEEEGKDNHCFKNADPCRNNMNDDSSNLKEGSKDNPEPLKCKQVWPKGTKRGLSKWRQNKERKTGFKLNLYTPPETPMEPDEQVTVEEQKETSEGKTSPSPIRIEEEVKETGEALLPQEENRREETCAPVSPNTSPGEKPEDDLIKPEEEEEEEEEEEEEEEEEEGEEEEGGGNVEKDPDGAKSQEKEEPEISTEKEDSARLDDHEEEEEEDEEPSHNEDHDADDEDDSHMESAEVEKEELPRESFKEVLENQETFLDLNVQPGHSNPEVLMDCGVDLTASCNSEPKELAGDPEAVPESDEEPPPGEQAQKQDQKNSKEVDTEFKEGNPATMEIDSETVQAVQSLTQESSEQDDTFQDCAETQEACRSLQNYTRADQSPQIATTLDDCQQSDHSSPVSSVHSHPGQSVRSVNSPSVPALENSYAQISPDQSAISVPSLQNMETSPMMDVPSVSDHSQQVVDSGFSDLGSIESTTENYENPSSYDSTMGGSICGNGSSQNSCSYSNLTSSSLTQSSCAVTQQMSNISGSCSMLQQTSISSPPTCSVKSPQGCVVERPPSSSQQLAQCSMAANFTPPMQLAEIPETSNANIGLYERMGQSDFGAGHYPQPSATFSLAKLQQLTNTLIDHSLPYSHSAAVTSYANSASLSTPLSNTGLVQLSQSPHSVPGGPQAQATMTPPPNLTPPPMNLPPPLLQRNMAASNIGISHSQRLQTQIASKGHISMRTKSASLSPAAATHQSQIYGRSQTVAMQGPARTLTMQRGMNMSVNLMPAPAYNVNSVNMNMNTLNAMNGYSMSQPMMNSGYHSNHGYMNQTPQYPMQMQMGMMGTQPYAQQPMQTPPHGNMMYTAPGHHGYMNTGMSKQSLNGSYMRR
From the text: KAT6B was obtained from SignalChem, catalog ID: K315-381BG

[12] = tested on: histone H3K23 acetylation (KATE mediated) in U2OS cells; experiment: Histone H3 Lysine 23 Acetylation Biomarker Assay (U2OS); assay type: cell-based; conditions: 96 well, 24 hours incubation
Procedure, shortened: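 U2OS cells were treated with compound for 24 h, then fixed and immunostained for H3K23ac with Hoechst nuclear counterstain. Per-nucleus Alexa647 intensity was quantified by high-content imaging and converted to % inhibition against DMSO and 10 μM reference-inhibitor controls. IC50 was derived from a four-parameter logistic fit.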

Row | SMILES | IC50 ([1]; Homo sapiens) | IC50 [2] | IC50 [3] | IC50 [4] | IC50 [5] | IC50 [6] | IC50 [1] | IC50 [7] | IC50 [8] | IC50 ([9]; read-out: IC50 (MOF-KAT8), Revised acetyltransferase biochemical assay, 20 nM KAT8, 1 μM AcCoA, 100 nM histone H4, 90 min) | IC50 [10] | IC50 [11] | IC50 [12] | IC50 ([3]; Homo sapiens, 24 h) | IC50 [9] | IC50 ([12]; Homo sapiens)
1 | O=C(NCC(c1ccccc1)c1ncco1)C1=Nc2ccccc2S(=O)(=O)N1 (single isomer, unassigned) [Example 137] | 10000 nM | 913 nM | 2450 nM | 100000 nM | 107 nM | 3080 nM |  |  |  |  |  |  |  |  |  | 
2 | O=C(NCC(c1ccccc1)c1ncco1)C1=Nc2ccc(Br)cc2S(=O)(=O)N1 (single isomer, unassigned) [Example 138] |  | 234 nM | 145 nM | 8070 nM |  | 95.2 nM | 1460 nM |  |  |  |  |  |  |  |  | 
3 | O=C(NCC(c1ccccc1)c1ncco1)C1=Nc2ccc(Br)cc2S(=O)(=O)N1 (single isomer, unassigned) [Example 139] |  | 61.5 nM | 263 nM | 19100 nM | 464 nM | 1300 nM | 5050 nM | 707 nM | 184 nM | 75800 nM | 100 nM |  |  |  |  | 
4 | O=C(NCC(c1ccccc1)c1ncco1)C1=Nc2ccc(I)cc2S(=O)(=O)N1 (single isomer, unassigned) [Example 146, 7-iodo-N-(2-(oxazol-2-yl)-2-phenylethyl)-2H-benzo[e][1,2,4]thiadiazine-3-carboxamide 1,1-dioxide] |  | 160 nM | 429 nM |  | 25.9 nM | 46.8 nM | 447 nM | 13 nM | 36 nM |  | 2 nM | 19 nM | 16 nM |  |  | 
5 | O=C(NCC(c1ccccc1)c1ncco1)C1=Nc2ccc(I)cc2S(=O)(=O)N1 (single isomer, unassigned) [Example 147] |  | 167 nM | 193 nM |  | 645 nM | 445 nM | 1430 nM | 132 nM | 57 nM |  | 29 nM | 311 nM | 482 nM |  |  | 
6 | O=C(NCC(c1ccccc1)c1ncco1)C1=Nc2ccc(O)cc2S(=O)(=O)N1 (stereo not shown) [Example 8, 7-Hydroxy-N-(2-(oxazol-2-yl)-2-phenylethyl)-2H-benzo[e][1,2,4]thiadiazine-3-carboxamide 1,1-dioxide] |  | 1200 nM |  |  |  | 4400 nM |  | 2010 nM | 134 nM |  | 11 nM | 210 nM |  | 9680 nM | 10500 nM | 5860 nM
7 | COC(=O)c1ccccc1CCNC(=O)C1=Nc2ccc(I)cc2S(=O)(=O)N1 [Example 12, Methyl 2-(2-(7-iodo-1,1-dioxido-2H-benzo[e][1,2,4]thiadiazine-3-carboxamido)ethyl)benzoate] | 26800 nM | 5870 nM |  |  |  | 2620 nM |  |  |  |  |  |  |  |  |  | 
8 | O=C(NCCc1ccccc1-c1ncco1)C1=Nc2ccc(I)cc2S(=O)(=O)N1 [Example 13, 7-Iodo-N-(2-(oxazol-2-yl)phenethyl)-2H-benzo[e][1,2,4]thiadiazine-3-carboxamide 1,1-dioxide] | 5780 nM | 981 nM |  |  | 229 nM | 727 nM |  | 111 nM | 128 nM |  | 10 nM |  |  |  | 36400 nM | 
9 | O=C(NCC(c1ccccc1)c1ncco1)C1=Nc2ccc(F)cc2S(=O)(=O)N1 (stereo not shown) [Example 36, 7-fluoro-N-(2-(oxazol-2-yl)-2-phenylethyl)-2H-benzo[e][1,2,4]thiadiazine-3-carboxamide 1,1-dioxide] |  | 538 nM |  |  | 661 nM | 19600 nM |  | 5470 nM | 3380 nM |  | 74 nM | 724 nM |  | 9980 nM |  | 263 nM
10 | O=C(NCCc1ccccc1)C1=Nc2ccc(I)cc2S(=O)(=O)N1 [Example 93] |  | 9590 nM |  |  | 2200 nM | 9200 nM |  | 2000 nM | 1790 nM |  | 98 nM | 1780 nM |  | 30000 nM | > 125000 nM | > 10000 nM
11 | COc1cccc(CCNC(=O)C2=Nc3ccc(I)cc3S(=O)(=O)N2)c1 [Example 101] | 30000 nM | > 125000 nM |  |  | 10200 nM | > 125000 nM |  |  |  |  |  |  |  | 30000 nM |  | 
12 | O=C(NCC(O)c1cccc(OCc2ccccc2)c1)C1=Nc2ccc(I)cc2S(=O)(=O)N1 (stereo not shown) [Example 122] | 10000 nM | > 125000 nM |  |  |  | > 125000 nM |  |  |  |  |  |  |  |  |  | 
